Test results published in article PMC6325638 (Clinics in liver disease, 2017).
Where two headings read alike, the source gives them in different places.

How the values were obtained:
zebrafish larvae [1] = tested on: zebrafish larvae
zebrafish larvae [2] = details: in vivo
cultured rat hepatocytes = assay: ROS induction and death in cultured hepatocytes; type: cell-based; details: 96-well plates, oxyethidium fluorescence
[3] = tested on: 3D multicellular microphysiological systems (MPS) of the human liver; details: 3D multicellular microfluidic human liver model; cited from earlier work
[4] = 72 hpf zebrafish larvae, 0.66 μM
[5] = 72 hpf zebrafish larvae, 6.6 μM
[6] = 72 hpf zebrafish larvae, 200 μM
[7] = 72 hpf zebrafish larvae, 0.07 μM
[8] = 72 hpf zebrafish larvae, 0.2 μM

Compound	Live/dead (translucent = live, opaque = dead) (zebrafish larvae [1]; [4])	Live/dead (translucent = live, opaque = dead) (zebrafish larvae [1]; 72 hpf zebrafish larvae, 2 μM)	Live/dead (translucent = live, opaque = dead) (zebrafish larvae [1]; [5])	Live/dead (translucent = live, opaque = dead) (zebrafish larvae [1]; 72 hpf zebrafish larvae, 20 μM)	Live/dead (translucent = live, opaque = dead) (zebrafish larvae [1]; 72 hpf zebrafish larvae, 66 μM)	Live/dead (translucent = live, opaque = dead) (zebrafish larvae [1]; [6])	Live/dead (translucent = live, opaque = dead) (zebrafish larvae [1]; [7])	Visual toxicity (bent tail, distended peritoneum, edema, pericardial congestion) (zebrafish larvae [1]; [7])	Live/dead (translucent = live, opaque = dead) (zebrafish larvae [1]; [8])	Visual toxicity (bent tail, distended peritoneum, edema, pericardial congestion) (zebrafish larvae [1]; [8])	Visual toxicity (bent tail, distended peritoneum, edema, pericardial congestion) (zebrafish larvae [1]; [4])	Visual toxicity (bent tail, distended peritoneum, edema, pericardial congestion) (zebrafish larvae [1]; 72 hpf zebrafish larvae, 2 μM)	Visual toxicity (bent tail, distended peritoneum, edema, pericardial congestion) (zebrafish larvae [1]; [5])	Visual toxicity (bent tail, distended peritoneum, edema, pericardial congestion) (zebrafish larvae [1]; 72 hpf zebrafish larvae, 20 μM)	further results
CCCCc1oc2ccccc2c1C(=O)c1cc(I)c(OCCN(CC)CC)c(I)c1 [Amiodarone]	4/0	4/0	4/0	4/0	0/4	0/4									
N#CC(C#N)=NNc1cccc(Cl)c1 [CCCP, Carbonyl cyandide m-chorophenyl hydrazone]	4/0	4/0	4/0				4/0	2/4	4/0	4/4	3/4	3/4	2/4	0/1	
Cn1c(=O)c2c(ncn2C)n(C)c1=O [Caffeine]															Live/dead (translucent = live, opaque = dead) (zebrafish larvae [1]; 72 hpf zebrafish larvae, 3 μM): 4/0; Live/dead (translucent = live, opaque = dead) (zebrafish larvae [1]; 72 hpf zebrafish larvae, 10 μM): 4/0; Live/dead (translucent = live, opaque = dead) (zebrafish larvae [1]; 72 hpf zebrafish larvae, 30 μM): 4/0; Live/dead (translucent = live, opaque = dead) (zebrafish larvae [1]; 72 hpf zebrafish larvae, 100 μM): 4/0; Live/dead (translucent = live, opaque = dead) (zebrafish larvae [1]; 72 hpf zebrafish larvae, 300 μM): 4/0; Live/dead (translucent = live, opaque = dead) (zebrafish larvae [1]; 72 hpf zebrafish larvae, 1000 μM): 4/0
CC1=CC(=O)c2ccccc2C1=O [Menadione]	4/0	4/0	4/0	0/4	0/4	0/4									Generation of ROS in zebrafish (zebrafish larvae [2]): time-dependent and dose-dependent generation of ROS; ROS induction and death in cultured hepatocytes (cultured rat hepatocytes): ROS induction and death in cultured hepatocytes; Visual toxicity (bent tail, distended peritoneum, edema, pericardial congestion) (zebrafish larvae [1]; zebrafish, in vivo, 0.66 μM): 0/4; Visual toxicity (bent tail, distended peritoneum, edema, pericardial congestion) (zebrafish larvae [1]; zebrafish, in vivo, 2 μM): 2/4; Visual toxicity (bent tail, distended peritoneum, edema, pericardial congestion) (zebrafish larvae [1]; zebrafish, in vivo, 6.6 μM): 1/4
C=C(C)[C@H]1Cc2c(ccc3c2O[C@@H]2COc4cc(OC)c(OC)cc4[C@@H]2C3=O)O1 [Rotenone]	4/0	4/0		1/4			4/0	2/4	4/0	3/4	2/4	1/4	0/3	1/1	
CN(Cc1cnc2nc(N)nc(N)c2n1)c1ccc(C(=O)N[C@@H](CCC(=O)O)C(=O)O)cc1 [methotrexate]															Chronic drug effect in human liver MPS [3]: induction of fibrosis
